PubChem BioAssay (NCI)
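Method: 48-hour compound exposure of cells in 96-well plates, five concentrations, linear interpolation of endpoints. TGI denotes the concentration required for complete inhibition of growth.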

Columns and labels:
Assay in all cases: NCI-60 cell line screen, 48 h
[1] = tested on: SF-295 CNS
[2] = tested on: U251 CNS
[3] = tested on: A498 renal
[4] = tested on: SK-MEL-5 melanoma
[5] = tested on: PC-3 prostate
[6] = tested on: SF-268 CNS
[7] = tested on: OVCAR-8 ovarian
[8] = tested on: MDA-N
[9] = tested on: SF-539 CNS
[10] = tested on: OVCAR-4 ovarian
[11] = tested on: MDA-MB-435
[12] = tested on: A549 NSCLC
[13] = tested on: MDA-MB-231 breast
[14] = tested on: HOP-92 NSCLC
[15] = tested on: IGROV1 ovarian
[16] = tested on: SN12C renal
[17] = tested on: UO-31 renal
[18] = tested on: HT29 colon
[19] = tested on: M14 melanoma
[20] = tested on: OVCAR-3 ovarian
[21] = tested on: HCT-116 colon
[22] = tested on: RXF 393 renal
[23] = tested on: OVCAR-5 ovarian
[24] = tested on: CAKI-1 renal
[25] = tested on: NCI-H23 lung
[26] = tested on: NCI-H226 lung
[27] = tested on: DU-145 prostate
[28] = tested on: NCI/ADR-RES ovarian
[29] = tested on: ACHN renal
[30] = tested on: KM12 colon
[31] = tested on: HCT-15 colon
[32] = tested on: SNB-19 CNS
[33] = tested on: SW-620 colon
[34] = tested on: COLO 205 colon
[35] = tested on: EKVX NSCLC
[36] = tested on: SNB-75 CNS
[37] = tested on: TK-10 renal
[38] = tested on: SK-MEL-28 melanoma
[39] = tested on: K-562 leukemia
[40] = tested on: LOX IMVI melanoma
[41] = tested on: UACC-62 melanoma
[42] = tested on: MCF7 breast
[43] = tested on: RPMI-8226 leukemia
[44] = tested on: UACC-257 melanoma
[45] = tested on: HL-60(TB) leukemia
[46] = tested on: HS 578T breast
[47] = tested on: NCI-H460 lung
[48] = tested on: CCRF-CEM leukemia
[49] = tested on: MOLT-4 leukemia
[50] = tested on: 786-0 renal
[51] = tested on: HCC-2998 colon
[52] = tested on: HOP-62 NSCLC
[53] = tested on: SR leukemia

Compound: CC1(C)CC(=O)C(C(CC(c2ccccc2)c2cc3c(cc2O)OCO3)C2=C(O)CC(C)(C)CC2=O)=C(O)C1 (stereo unspecified)
- TGI [1]: > 10 µM
- TGI [2]: > 10 µM
- TGI [3]: > 10 µM
- TGI [4]: > 10 µM
- TGI [5]: > 10 µM
- TGI [6]: > 10 µM
- TGI [7]: > 10 µM
- TGI [8]: > 10 µM
- TGI [9]: > 10 µM
- TGI [10]: > 10 µM
- TGI [11]: > 10 µM
- TGI [12]: > 10 µM
- TGI [13]: > 10 µM
- TGI [14]: > 10 µM
- TGI [15]: > 10 µM
- TGI [16]: > 10 µM
- TGI [17]: > 10 µM
- TGI [18]: > 10 µM
- TGI [19]: > 10 µM
- TGI [20]: > 10 µM
- TGI [21]: > 10 µM
- TGI [22]: > 10 µM
- TGI [23]: > 10 µM
- TGI [24]: > 10 µM
- TGI [25]: > 10 µM
- TGI [26]: > 10 µM
- TGI [27]: > 10 µM
- TGI [28]: > 10 µM
- TGI [29]: > 10 µM
- TGI [30]: > 10 µM
- TGI [31]: > 10 µM
- TGI [32]: > 10 µM
- TGI [33]: > 10 µM
- TGI [34]: > 10 µM
- TGI [35]: > 10 µM
- TGI [36]: > 10 µM
- TGI [37]: > 10 µM

Compound: CCOC(=O)c1c(-c2ccc(O)c(OC)c2)c(C#N)c(=S)n(C2OC(CO)C(O)C(O)C2O)c1-c1ccccc1 (stereo unspecified)
- TGI [1]: > 100 µM
- TGI [2]: > 100 µM
- TGI [38]: > 100 µM
- TGI [39]: > 100 µM
- TGI [3]: > 100 µM
- TGI [4]: > 100 µM
- TGI [40]: > 100 µM
- TGI [5]: > 100 µM
- TGI [6]: > 100 µM
- TGI [7]: > 100 µM
- TGI [41]: > 100 µM
- TGI [8]: > 100 µM
- TGI [10]: > 100 µM
- TGI [42]: > 100 µM
- TGI [11]: > 100 µM
- TGI [43]: > 100 µM
- TGI [12]: > 100 µM
- TGI [44]: > 100 µM
- TGI [14]: > 100 µM
- TGI [15]: > 100 µM
- TGI [16]: > 100 µM
- TGI [17]: > 100 µM
- TGI [18]: > 100 µM
- TGI [19]: > 100 µM
- TGI [45]: > 100 µM
- TGI [20]: > 100 µM
- TGI [46]: > 100 µM
- TGI [21]: > 100 µM
- TGI [22]: > 100 µM
- TGI [23]: > 100 µM
- TGI [24]: > 100 µM
- TGI [25]: > 100 µM
- TGI [26]: > 100 µM
- TGI [47]: > 100 µM
- TGI [48]: > 100 µM
- TGI [49]: > 100 µM
- TGI [27]: > 100 µM
- TGI [28]: > 100 µM
- TGI [29]: > 100 µM
- TGI [50]: > 100 µM
- TGI [30]: > 100 µM
- TGI [51]: > 100 µM
- TGI [31]: > 100 µM
- TGI [32]: > 100 µM
- TGI [33]: > 100 µM
- TGI [34]: > 100 µM
- TGI [52]: > 100 µM
- TGI [53]: > 100 µM
- TGI [35]: > 100 µM
